# Measurements taken from patent US12365685B2, “Substituted fused aromatic ring derivative, composition and use thereof” (Shenzhen TargetRx, Inc., priority 2019, dated 2025).
# pIC50: −log10 of the molar value. Like-named read-outs stand apart in the source and are kept apart here.
# Tests used:
# Ret wt = Ret wt (Homo sapiens (Human), UniProt P07949); assay: Inhibition of kinase, Ret wt (HTRF KinEASE-TK); type: biochemical
# Method: (§1) Ret wt (Carna, Cat. No. 08-159-10 ug), RET (V804M), Active (Signalchem, Cat. No. R02-12GG), HTRF KinEASE-TK kit (Cisbio, Cat. No. 62TK0PEC), CEP-32496 (MCE, Cat. No. HY-15200), ATP (Sigma, Cat. No. A7699), DMSO (Sigma, Cat. No. D8418-1L), DTT (Sigma, Cat. No. D0632), MgCl2 (Sigma, Cat. No. M1028), 384-well plate (Labcyte, Cat. No. P-05525-BC).
# (§2) Formulation of compound: The test compounds were dissolved in DMSO to obtain 10 mM stock solutions, which were then serially diluted 3-fold in DMSO to obtain 10 concentrations. At the time of addition, the compound was further diluted 10-fold with buffer.
# (§3) In 5× kinase buffer A, Ret wt or RET V804M kinase was mixed with different concentrations of compounds prepared by pre-dilution for 10 minutes. Each concentration was tested in duplicate. The corresponding substrate and ATP were added, and reaction was performed at room temperature for 20 minutes (negative and positive controls were provided: the negative control was a blank control, and the positive control was CEP-32496). After completion of the reaction, detection reagents (reagents in the HTRF KinEASE-TK kit) were added. After incubating for 30 minutes at room temperature, enzyme activity in the presence of various concentrations of the compounds of the present disclosure was determined by Envision microplate reader, and inhibitory activity of different concentrations of the compounds on enzyme activity was calculated. The inhibitory activity of different concentrations of the compounds on enzyme activity was fitted by Graphpad 5.0 software, and the IC50 value was calculated, wherein A indicates IC50 10 nM, B indicates 10 nM<IC50≤50 nM, C indicates 50 nM<IC50≤100 nM, and D indicates IC50>100 nM.
# RET V804M = RET V804M (Homo sapiens (Human), UniProt P07949, V804M); assay: Inhibition of kinase, RET V804M (HTRF KinEASE-TK); type: biochemical; settings: reaction 20 minutes at room temperature
# Method: as §1, §2, §3
# Ba/F3 KIF5B-RET cells = assay: Cytotoxicity assay, Ba/F3 KIF5B-RET (CellTiter-Glo); type: cell-based; settings: Mus musculus, BaF3; 72 hrs, CTG
# Source text: (§4) Inhibitory effect of example compounds on the activity of Ba/F3 KIF5B-RET and Ba/F3 FLT3-ITD cells was detected.
# (§5) Materials and reagents: fetal bovine serum (FBS) (GIBCO, Cat. No. 10099141), CellTiter-Glo® Luminescent Cell Viability Assay (Promega, Cat #G7572), 96-well clear flat-bottom black-wall plate (Corning®, Cat #3603).
# (§6) • 1. Cells in the logarithmic growth phase were harvested and counted with a […]. Cell viability was detected by a trypan blue exclusion method, ensuring that cell viability was 90% or more; • 2. The cell concentration was adjusted to 3000 cells/well; 90 μl of cell suspension was added to each well of the 96-well plate; • 3. The cells in the 96-well plate were incubated overnight under the condition of 37° C., 5% CO2, and 95% humidity. Dilution and Addition of Compound: • 1. 10-fold compound solutions were formulated by 3.16-fold serial dilution starting from a concentration of 10 μM, resulting in 9 concentrations. 10 μL of the compound solutions were added in each well of the 96-well plate seeded with cells in triplicate for each compound concentration; • 2. The cells in the 96-well plate added with compounds were further incubated under the condition of 37° C., 5% CO2, and 95% humidity for 72 hrs, and then CTG analysis was carried out. Plate Reading at the End: • 1. CTG reagent was thawed, and the cell plate was equilibrated at room temperature for 30 minutes; • 2. An equal volume ([…]) of CTG solution was added to each well; • 3. The cell plate was shaken on an orbital shaker for 5 minutes to lyse the cells; • 4. The cell plate was placed at RT for 20 minutes to stabilize the luminescence signal; • 5. Luminescence value was read. Data Processing
# (§7) Data were analyzed by GraphPad Prism 5.0 software, and fitted by nonlinear S-curve regression to obtain a dose-response curve, from which IC50 values were calculated, wherein A indicates IC50≤10 nM, B indicates 10 nM<IC50≤50 nM, C indicates 50 nM<IC50≤100 nM, and D indicates IC50>100 nM. cell survival (%)=(Lumtest compound−Lumculture medium control)/(Lumcell control−Lumculture medium control)×100%.
# Ba/F3 FLT3-ITD cells = assay: Cytotoxicity assay, Ba/F3 FLT3-ITD (CellTiter-Glo); type: cell-based; settings: 72 hrs, CTG
# Source text: as §4, §5, §6, §7
# Ba/F3 FLT3-ITD^F691L = assay: Cytotoxicity assay, Ba/F3 FLT3-ITD F691L (CellTiter-Glo); type: cell-based; settings: Mus musculus, BaF3; 72 hrs, CTG
# Ba/F3 parental = assay: Cytotoxicity assay, Ba/F3 parental (CellTiter-Glo); type: cell-based; settings: Mus musculus, BaF3; 72 hrs, CTG
# Source text: [Worded in the source for another cell line; this cell line is reported under the same test.] as §4, §5, §6, §7
# Ba/F3 FLT3-ITD^D835Y = assay: Cytotoxicity assay, Ba/F3 FLT3-ITD D835Y (CellTiter-Glo); type: cell-based; settings: Mus musculus, BaF3; 72 hrs, CTG
# Source text: [Worded in the source for another variant; this variant is reported under the same test.] as §4, §5, §6, §7
# Ba/F3 KIF5B-RET^V804M = assay: Cytotoxicity assay, Ba/F3 KIF5B-RET V804M (CellTiter-Glo); type: cell-based; settings: Mus musculus, BaF3; 72 hrs, CTG
# Source text: [Worded in the source for another variant; this variant is reported under the same test.] as §4, §5, §6, §7
# [1] = HTRF KinEASE-TK, reaction 20 minutes at room temperature, read-out: Ret wt IC50
# RET V804M, sequence (P07949 29-1114 V804M): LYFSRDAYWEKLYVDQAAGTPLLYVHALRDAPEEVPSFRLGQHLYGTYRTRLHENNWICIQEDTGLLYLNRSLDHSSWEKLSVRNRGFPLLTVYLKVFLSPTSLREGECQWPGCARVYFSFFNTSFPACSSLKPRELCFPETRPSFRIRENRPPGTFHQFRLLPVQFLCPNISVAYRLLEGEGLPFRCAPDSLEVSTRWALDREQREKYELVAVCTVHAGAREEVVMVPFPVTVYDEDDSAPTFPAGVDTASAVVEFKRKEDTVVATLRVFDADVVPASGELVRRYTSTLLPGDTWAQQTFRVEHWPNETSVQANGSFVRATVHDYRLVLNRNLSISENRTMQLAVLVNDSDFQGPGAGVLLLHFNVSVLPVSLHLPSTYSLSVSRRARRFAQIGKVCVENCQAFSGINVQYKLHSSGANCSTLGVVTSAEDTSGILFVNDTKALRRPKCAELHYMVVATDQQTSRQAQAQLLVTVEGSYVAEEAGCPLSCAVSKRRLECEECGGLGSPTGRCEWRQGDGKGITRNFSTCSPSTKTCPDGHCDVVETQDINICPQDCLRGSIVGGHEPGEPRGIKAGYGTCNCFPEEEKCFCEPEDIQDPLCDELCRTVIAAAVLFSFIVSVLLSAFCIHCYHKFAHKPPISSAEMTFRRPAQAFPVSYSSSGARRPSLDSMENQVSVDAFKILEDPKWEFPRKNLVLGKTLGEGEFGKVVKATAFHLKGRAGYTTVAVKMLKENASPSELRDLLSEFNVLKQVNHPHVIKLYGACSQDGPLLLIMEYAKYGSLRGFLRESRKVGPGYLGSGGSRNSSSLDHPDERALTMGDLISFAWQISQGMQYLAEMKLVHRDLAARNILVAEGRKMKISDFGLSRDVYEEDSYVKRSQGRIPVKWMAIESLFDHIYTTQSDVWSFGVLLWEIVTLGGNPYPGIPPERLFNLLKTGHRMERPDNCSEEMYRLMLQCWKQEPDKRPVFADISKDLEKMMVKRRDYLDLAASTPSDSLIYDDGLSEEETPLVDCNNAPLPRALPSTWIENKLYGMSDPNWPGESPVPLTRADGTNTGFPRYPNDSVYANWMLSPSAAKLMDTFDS
# Ret wt, sequence (P07949 29-1114): as the sequence (P07949 29-1114 V804M) above, with M776V counted along it
SMILES,pIC50 (Ret wt; [1]),pIC50 (RET V804M),pIC50 (Ret wt; read-out: IC50 against Ret wt),pIC50 (Ba/F3 KIF5B-RET cells),pIC50 (Ba/F3 FLT3-ITD cells),pIC50 (Ba/F3 FLT3-ITD^F691L),pIC50 (Ba/F3 parental),pIC50 (Ba/F3 FLT3-ITD^D835Y),pIC50 (Ba/F3 KIF5B-RET^V804M)
"Cn1cc(-c2cc3ncc(-c4ccc(CC(=O)Nc5cc(C(C)(C)C(F)(F)F)on5)cc4)n3cn2)cn1 [Compound T-4, 2-(4-(7-(1-methyl-1H-pyrazol-4-yl)imidazo[1,2-c]pyrimidin-3-yl)phenyl)-N-(5-(1,1,1-trifluoro-2-methylpropan-2-yl)isoxazol-3-yl)acetamide]",9.80,9.55,,8.14,9.31,,,,
"Cn1cc(-c2cnn3c(-c4ccc(CC(=O)Nc5cc(C(C)(C)C(F)(F)F)on5)cn4)cnc3c2)cn1 [Compound T-9, 2-(6-(7-(1-methyl-1H-pyrazol-4-yl)imidazo[1,2-b]pyridazin-3-yl)pyridin-3-yl)-N-(5-(1,1,1-trifluoro-2-methylpropan-2-yl)isoxazol-3-yl)acetamide]",9.62,9.32,,7.22,9.29,7.80,< 5.00,7.97,6.25
"Cn1cc(-c2cn3ncc(-c4ccc(CC(=O)Nc5cc(C(C)(C)C(F)(F)F)on5)cc4)c3cn2)cn1 [Compound T-12, 2-(4-(6-(1-methyl-1H-pyrazol-4-yl)pyrazolo[1,5-a]pyrazin-3-yl)phenyl)-N-(5-(1,1,1-trifluoro-2-methylpropan-2-yl)isoxazol-3-yl)acetamide]",9.51,8.95,,8.00,,,,,
"Cn1cc(-c2cnn3c(-c4ccc(CC(=O)Nc5cc(C(C)(C)C(F)(F)F)on5)cc4)cnc3c2)cn1 [Compound T-2, 2-(4-(7-(1-methyl-1H-pyrazol-4-yl)imidazo[1,2-b]pyridazin-3-yl)phenyl)-N-(5-(1,1,1-trifluoro-2-methylpropan-2-yl)isoxazol-3-yl)acetamide]",9.74,9.40,,8.31,9.10,8.84,5.49,8.91,7.75
"Cn1cc(Nc2nccn3c(-c4ccc(CC(=O)Nc5cc(C(C)(C)C(F)(F)F)on5)cc4)cnc23)cn1 [Compound T-5, 2-(4-(8-((1-methyl-1H-pyrazol-4-yl)amino)imidazo[1,2-a]pyrazin-3-yl)phenyl)-N-(5-(1,1,1-trifluoro-2-methylpropan-2-yl)isoxazol-3-yl)acetamide]",9.60,9.10,,8.61,10.00,8.84,5.64,8.84,8.27
"Cn1cc(-c2ccc3c(-c4ccc(CC(=O)Nc5cc(C(C)(C)C(F)(F)F)on5)cc4)cnn3c2)cn1 [Compound T-11, 2-(4-(6-(1-methyl-1H-pyrazol-4-yl)pyrazolo[1,5-a]pyridin-3-yl)phenyl)-N-(5-(1,1,1-trifluoro-2-methylpropan-2-yl)isoxazol-3-yl)acetamide]",9.17,9.06,,7.81,9.70,8.95,5.85,8.76,8.44
"Cn1cc(-c2cnn3c(-c4ccc(NC(=O)Nc5cc(C(F)(F)F)ccc5F)cc4)cnc3c2)cn1 [Compound T-1, 1-(2-fluoro-5-(trifluoromethyl)phenyl)-3-(4-(7-(1-methyl-1H-pyrazol-4-yl)imidazo[1,2-b]pyridazin-3-yl)phenyl)urea]",< 7.00,7.12,,6.27,8.63,,5.96,,
"Cn1cc(Nc2ccnn3c(-c4ccc(CC(=O)Nc5cc(C(C)(C)C(F)(F)F)on5)cc4)cnc23)cn1 [Compound T-6, 2-(4-(8-((1-methyl-1H-pyrazol-4-yl)amino)imidazo[1,2-b]pyridazin-3-yl)phenyl)-N-(5-(1,1,1-trifluoro-2-methylpropan-2-yl)isoxazol-3-yl)acetamide]",9.35,8.98,,8.21,8.98,8.91,5.66,8.62,7.68

# Stronger by pIC50 (Ret wt; [1]), values ahead:
pIC50 (Ret wt; [1]),pIC50 (RET V804M),pIC50 (Ret wt; read-out: IC50 against Ret wt),SMILES,pIC50 (Ba/F3 KIF5B-RET cells),pIC50 (Ba/F3 FLT3-ITD cells),pIC50 (Ba/F3 FLT3-ITD^F691L),pIC50 (Ba/F3 parental),pIC50 (Ba/F3 FLT3-ITD^D835Y),pIC50 (Ba/F3 KIF5B-RET^V804M)
9.82,9.70,,"Cn1cc(-c2cnn3c(-c4ccc(CC(=O)Nc5cc(C(C)(C)C(F)(F)F)on5)c(F)c4)cnc3c2)cn1 [Compound T-7, 2-(2-fluoro-4-(7-(1-methyl-1H-pyrazol-4-yl)imidazo[1,2-b]pyridazin-3-yl)phenyl)-N-(5-(1,1,1-trifluoro-2-methylpropan-2-yl)isoxazol-3-yl)acetamide]",8.64,9.72,8.94,5.74,8.94,7.97
9.89,9.68,,"Cn1cc(-c2cc3ncc(-c4ccc(CC(=O)Nc5cc(C(C)(C)C(F)(F)F)on5)cn4)n3cn2)cn1 [Compound T-3, 2-(6-(7-(1-methyl-1H-pyrazol-4-yl)imidazo[1,2-c]pyrimidin-3-yl)pyridin-3-yl)-N-(5-(1,1,1-trifluoro-2-methylpropan-2-yl)isoxazol-3-yl)acetamide]",7.29,9.70,7.87,5.09,8.04,6.90
10.00,9.46,> 9.70,"Cn1cc(-c2cc3ncc(-c4ccc(CC(=O)Nc5cc(C(C)(C)C(F)(F)F)on5)c(F)c4)n3cn2)cn1 [Compound T-8, 2-(2-fluoro-4-(7-(1-methyl-1H-pyrazol-4-yl)imidazo[1,2-c]pyrimidin-3-yl)phenyl)-N-(5-(1,1,1-trifluoro-2-methylpropan-2-yl)isoxazol-3-yl)acetamide]",7.81,,,,,
10.00,9.64,,"Cn1cc(-c2cnc3c(-c4ccc(CC(=O)Nc5cc(C(C)(C)C(F)(F)F)on5)cc4)cnn3c2)cn1 [Compound T-10, 2-(4-(6-(1-methyl-1H-pyrazol-4-yl)pyrazolo[1,5-a]pyrimidin-3-yl)phenyl)-N-(5-(1,1,1-trifluoro-2-methylpropan-2-yl)isoxazol-3-yl)acetamide]",8.00,> 10.00,8.99,6.03,8.74,8.09
